Key:
[1] = biological target: T1, Human δ-opioid (DOP) (Homo sapiens, UniProt P41143); assay: Radioligand binding, human δ-opioid (DOP) membranes, FlashPlate, [3H]-Bremazocine; conditions: compound at 10 μM; for A1 radioligand binding inhibition: human δ-opioid (DOP) membranes
T1 construct: purchased Perkin Elmer Biosignal
Summary of the method: (§1)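 Cloned human receptor membranes were coated onto FlashPlate wells and incubated with radioligand and compound (added from a 0.5 mM DMSO daughter plate) for 1 hour at room temperature in the dark. Scintillation counting gave percent inhibition, with DMSO defining total and reference ligand defining non-specific binding.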

[2] = biological target: T2, Human κ-Opioid (KOP) (Homo sapiens, UniProt P41145); assay: Radioligand binding, human κ-opioid (KOP) membranes, filtration, [3H]-Diprenorphine; conditions: compound at 10 μM; for A2 radioligand binding inhibition: human κ-opioid (KOP) membranes
T2 construct: purchased Perkin Elmer Biosignal
Summary of the method: (§2)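 Filtration binding on cloned human receptor membranes (1 Unit/well), [125I]-Substance P for NK1 and [3H]-Diprenorphine for KOP, 1 h at room temperature. Filters PEI-presoaked, washed with cold 50 mM Tris-HCl pH 7.4, counted by scintillation; percent inhibition calculated, reference ligand defining non-specific binding.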

[3] = biological target: T3, Human Melanocortin (MC3) (Homo sapiens, UniProt P41968); assay: Radioligand binding, human melanocortin MC3 membranes, FlashPlate, [125I]-NDP-αMSH; conditions: compound at 10 μM; for A3 radioligand binding inhibition: human melanocortin MC3 membranes
T3 construct: purchased Perkin Elmer Biosignal
Summary of the method: as §1

[4] = biological target: T4, Human Melanocortin (MC4) (Homo sapiens, UniProt P32245); assay: Radioligand binding, human melanocortin MC4 membranes, FlashPlate, [125I]-NDP-αMSH; conditions: compound at 10 μM; for A4 radioligand binding inhibition: human melanocortin MC4 membranes
T4 construct: purchased Perkin Elmer Biosignal
Summary of the method: as §1

[5] = biological target: T5, Human melanocortin (MC5) (Homo sapiens, UniProt P33032); assay: Radioligand binding, human melanocortin MC5 membranes, FlashPlate, [125I]-NDP-αMSH; conditions: compound at 10 μM; for A5 radioligand binding inhibition: human melanocortin MC5 membranes
T5 construct: purchased Perkin Elmer Biosignal
Summary of the method: as §1

[6] = biological target: T6, Human melanin-concentrating hormone (MCH1) (Homo sapiens, UniProt Q99705); assay: Radioligand binding, human melanin-concentrating hormone MCH1 membranes, FlashPlate, [125I]-S36057; conditions: compound at 10 μM; for A6 radioligand binding inhibition: human MCH1 membranes
T6 construct: purchased Perkin Elmer Biosignal
Summary of the method: as §1

[7] = biological target: T7, Human μ-opioid (MOP) (Homo sapiens, UniProt P35372); assay: Radioligand binding, human μ-opioid (MOP) membranes, FlashPlate, [3H]-Naloxone; conditions: compound at 10 μM; for A7 radioligand binding inhibition: human μ-opioid (MOP) membranes
T7 construct: purchased Perkin Elmer Biosignal
Summary of the method: as §1

[8] = biological target: T8, Human neurokinin (NK1) (Homo sapiens, UniProt P25103); assay: Radioligand binding, human neurokinin NK1 membranes, filtration, [125I]-Substance P; conditions: compound at 10 μM; for A8 radioligand binding inhibition: human neurokinin NK1 membranes
T8 construct: purchased Perkin Elmer Biosignal
Summary of the method: as §2

[9] = biological target: T9, Human neuropeptide Y (NPY-Y1) (Homo sapiens, UniProt P25929); assay: Radioligand binding, human neuropeptide Y NPY-Y1 membranes, FlashPlate, [125I]-PYY; conditions: compound at 10 μM; for A9 radioligand binding inhibition: human NPY-Y1 membranes
T9 construct: purchased Perkin Elmer Biosignal
T9 sequence (P25929 1-384): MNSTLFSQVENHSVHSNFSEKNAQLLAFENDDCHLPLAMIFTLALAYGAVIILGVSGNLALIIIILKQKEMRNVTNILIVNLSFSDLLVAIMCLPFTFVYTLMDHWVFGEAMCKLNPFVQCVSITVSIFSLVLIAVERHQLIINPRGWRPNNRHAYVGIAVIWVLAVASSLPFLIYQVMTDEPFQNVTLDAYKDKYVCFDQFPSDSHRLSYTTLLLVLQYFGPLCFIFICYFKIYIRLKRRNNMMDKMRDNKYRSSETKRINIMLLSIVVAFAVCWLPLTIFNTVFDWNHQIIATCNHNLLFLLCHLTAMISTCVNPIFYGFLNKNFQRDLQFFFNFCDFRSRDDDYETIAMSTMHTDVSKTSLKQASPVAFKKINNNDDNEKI
Summary of the method: as §1

[10] = biological target: T10, Human opioid (ORL1) (Homo sapiens, UniProt P41146); assay: Radioligand binding, human opioid ORL1 membranes, FlashPlate, [125I]-Nociceptin; conditions: compound at 10 μM; for A10 radioligand binding inhibition: human ORL1 membranes
T10 construct: purchased Perkin Elmer Biosignal
Summary of the method: as §1

[11] = biological target: T11, Mouse urotensin (mUR2) (Mus musculus, UniProt Q8VIH9); assay: Radioligand binding, mouse urotensin mUR2 membranes, FlashPlate, [125I]-Urotensin II; conditions: compound at 10 μM; for A11 radioligand binding inhibition: mouse urotensin mUR2 membranes
T11 construct: purchased Perkin Elmer Biosignal
T11 sequence (Q8VIH9 1-385): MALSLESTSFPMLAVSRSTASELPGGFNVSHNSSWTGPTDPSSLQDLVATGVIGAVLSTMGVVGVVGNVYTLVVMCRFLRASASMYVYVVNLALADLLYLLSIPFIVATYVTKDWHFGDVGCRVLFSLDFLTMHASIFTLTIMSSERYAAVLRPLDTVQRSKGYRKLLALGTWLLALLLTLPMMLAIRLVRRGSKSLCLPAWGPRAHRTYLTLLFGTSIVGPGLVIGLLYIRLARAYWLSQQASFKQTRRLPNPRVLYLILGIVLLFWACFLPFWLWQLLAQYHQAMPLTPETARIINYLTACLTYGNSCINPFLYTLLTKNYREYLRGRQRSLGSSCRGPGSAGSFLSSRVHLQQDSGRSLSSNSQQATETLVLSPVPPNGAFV
Summary of the method: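 Cloned mouse urotensin (mUR2) receptor membranes from Perkin Elmer Biosignal were immobilized in FlashPlate microplates using a proprietary coating. Each well got 19.5 μl buffer, then 0.5 μl of DMSO, reference ligand, or compound. Adding 5 μl of [125I]-Urotensin II, diluted to 5× final concentration in binding buffer, started binding. Plates were sealed with TopSeal-A and incubated 1 hour at room temperature in the dark. Wells were counted for 30 seconds each on a TopCount after a 60-second delay, and percentage inhibition was calculated.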

T8 sequence (P25103 whole entry): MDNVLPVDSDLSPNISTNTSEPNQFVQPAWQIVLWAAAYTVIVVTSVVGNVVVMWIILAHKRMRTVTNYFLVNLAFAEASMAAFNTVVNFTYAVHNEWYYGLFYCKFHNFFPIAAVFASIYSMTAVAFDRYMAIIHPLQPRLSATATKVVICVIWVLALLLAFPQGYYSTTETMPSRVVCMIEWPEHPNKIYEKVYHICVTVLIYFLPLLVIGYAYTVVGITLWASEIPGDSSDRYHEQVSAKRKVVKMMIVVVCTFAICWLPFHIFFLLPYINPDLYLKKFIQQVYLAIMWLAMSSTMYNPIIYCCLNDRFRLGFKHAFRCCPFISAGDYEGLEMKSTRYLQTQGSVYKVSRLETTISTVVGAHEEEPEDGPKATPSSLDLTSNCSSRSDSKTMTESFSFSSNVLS
T4 sequence (P32245 whole entry): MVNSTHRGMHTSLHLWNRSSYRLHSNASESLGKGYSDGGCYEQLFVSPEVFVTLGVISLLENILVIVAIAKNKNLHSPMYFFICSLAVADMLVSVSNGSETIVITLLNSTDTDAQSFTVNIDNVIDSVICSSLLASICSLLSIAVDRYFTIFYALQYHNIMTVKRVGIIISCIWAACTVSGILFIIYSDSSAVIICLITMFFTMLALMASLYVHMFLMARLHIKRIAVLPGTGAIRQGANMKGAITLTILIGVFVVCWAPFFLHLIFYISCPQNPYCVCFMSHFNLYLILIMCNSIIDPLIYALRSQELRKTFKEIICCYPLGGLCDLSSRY
T2 sequence (P41145 whole entry): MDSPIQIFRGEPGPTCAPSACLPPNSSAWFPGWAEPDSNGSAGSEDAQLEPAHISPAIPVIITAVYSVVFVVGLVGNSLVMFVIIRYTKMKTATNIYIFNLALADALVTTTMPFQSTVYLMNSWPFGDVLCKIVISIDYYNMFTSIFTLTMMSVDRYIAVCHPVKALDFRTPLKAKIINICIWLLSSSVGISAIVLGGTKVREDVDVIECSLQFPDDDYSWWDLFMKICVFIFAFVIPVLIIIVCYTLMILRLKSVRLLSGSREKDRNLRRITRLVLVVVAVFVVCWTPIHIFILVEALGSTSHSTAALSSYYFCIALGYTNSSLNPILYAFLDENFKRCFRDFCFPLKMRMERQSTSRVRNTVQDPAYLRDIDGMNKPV
T7 sequence (P35372 whole entry): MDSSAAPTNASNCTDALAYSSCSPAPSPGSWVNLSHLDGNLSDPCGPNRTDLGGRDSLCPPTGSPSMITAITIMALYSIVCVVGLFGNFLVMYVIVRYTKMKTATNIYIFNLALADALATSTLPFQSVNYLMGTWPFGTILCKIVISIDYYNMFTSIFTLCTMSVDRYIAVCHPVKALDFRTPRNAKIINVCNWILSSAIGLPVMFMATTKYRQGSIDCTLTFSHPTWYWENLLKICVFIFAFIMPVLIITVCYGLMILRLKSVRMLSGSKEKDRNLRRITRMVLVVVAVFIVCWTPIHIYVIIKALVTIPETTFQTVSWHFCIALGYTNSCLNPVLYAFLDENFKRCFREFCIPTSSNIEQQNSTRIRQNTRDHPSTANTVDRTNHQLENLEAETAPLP
T5 sequence (P33032 whole entry): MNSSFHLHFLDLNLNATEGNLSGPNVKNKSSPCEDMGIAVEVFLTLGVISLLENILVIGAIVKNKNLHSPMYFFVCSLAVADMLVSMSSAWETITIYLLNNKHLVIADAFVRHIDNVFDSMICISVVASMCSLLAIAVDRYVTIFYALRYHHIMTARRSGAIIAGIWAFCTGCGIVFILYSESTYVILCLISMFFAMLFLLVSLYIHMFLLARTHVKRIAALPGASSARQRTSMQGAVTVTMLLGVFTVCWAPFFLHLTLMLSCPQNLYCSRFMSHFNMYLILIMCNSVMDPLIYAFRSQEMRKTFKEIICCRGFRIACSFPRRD
T1 sequence (P41143 whole entry): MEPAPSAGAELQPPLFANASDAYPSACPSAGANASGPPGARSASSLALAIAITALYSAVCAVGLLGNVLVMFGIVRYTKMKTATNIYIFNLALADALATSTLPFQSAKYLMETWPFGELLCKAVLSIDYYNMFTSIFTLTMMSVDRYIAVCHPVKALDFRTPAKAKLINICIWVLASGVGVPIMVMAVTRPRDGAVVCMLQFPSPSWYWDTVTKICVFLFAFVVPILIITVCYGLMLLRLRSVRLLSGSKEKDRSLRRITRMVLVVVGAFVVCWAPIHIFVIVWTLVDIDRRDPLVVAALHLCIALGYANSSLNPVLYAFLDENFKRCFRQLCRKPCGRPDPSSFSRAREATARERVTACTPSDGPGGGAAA
T10 sequence (P41146 whole entry): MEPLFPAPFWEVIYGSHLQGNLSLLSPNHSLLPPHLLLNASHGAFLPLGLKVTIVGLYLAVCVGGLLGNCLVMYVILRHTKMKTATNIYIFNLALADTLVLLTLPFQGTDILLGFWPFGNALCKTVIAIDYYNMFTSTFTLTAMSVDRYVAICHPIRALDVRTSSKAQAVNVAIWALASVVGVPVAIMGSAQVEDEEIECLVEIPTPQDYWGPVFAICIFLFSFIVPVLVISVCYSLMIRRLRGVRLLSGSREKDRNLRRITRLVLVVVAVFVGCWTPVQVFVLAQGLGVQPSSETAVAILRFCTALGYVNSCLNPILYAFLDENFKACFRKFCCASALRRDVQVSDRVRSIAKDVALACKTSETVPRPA
T6 sequence (Q99705 whole entry): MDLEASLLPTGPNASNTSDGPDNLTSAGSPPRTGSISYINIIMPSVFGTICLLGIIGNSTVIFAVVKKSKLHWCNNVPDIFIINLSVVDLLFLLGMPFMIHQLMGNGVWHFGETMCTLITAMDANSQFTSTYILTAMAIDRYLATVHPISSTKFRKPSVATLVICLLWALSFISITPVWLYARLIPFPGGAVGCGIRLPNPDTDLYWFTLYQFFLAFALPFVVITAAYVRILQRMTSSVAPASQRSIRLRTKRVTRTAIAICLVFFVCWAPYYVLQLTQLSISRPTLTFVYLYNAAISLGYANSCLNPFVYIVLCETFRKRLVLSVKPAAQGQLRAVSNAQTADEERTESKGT
T3 sequence (P41968 whole entry): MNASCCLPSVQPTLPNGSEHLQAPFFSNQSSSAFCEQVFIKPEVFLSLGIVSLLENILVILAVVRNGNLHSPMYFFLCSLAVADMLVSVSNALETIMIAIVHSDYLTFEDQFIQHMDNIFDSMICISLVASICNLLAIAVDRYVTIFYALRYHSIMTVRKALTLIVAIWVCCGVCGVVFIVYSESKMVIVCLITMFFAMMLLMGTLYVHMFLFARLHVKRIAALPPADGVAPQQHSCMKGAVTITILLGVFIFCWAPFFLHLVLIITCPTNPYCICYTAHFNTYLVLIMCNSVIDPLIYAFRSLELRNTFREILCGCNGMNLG

Compound	A1 radioligand binding inhibition [1]	A2 radioligand binding inhibition [2]	A3 radioligand binding inhibition [3]	A4 radioligand binding inhibition [4]	A5 radioligand binding inhibition [5]	A6 radioligand binding inhibition [6]	A7 radioligand binding inhibition [7]	A8 radioligand binding inhibition [8]	A9 radioligand binding inhibition [9]	A10 radioligand binding inhibition [10]	A11 radioligand binding inhibition [11]	A1: inhibition of radioligand binding, human δ-opioid (DOP) ([1]; [3H]-Bremazocine)	A2: inhibition of radioligand binding, human κ-opioid (KOP) ([2]; [3H]-Diprenorphine)	A3: inhibition of radioligand binding, human melanocortin (MC3) ([3]; [125I]-NDP-αMSH)	A4: inhibition of radioligand binding, human melanocortin (MC4) ([4]; [125I]-NDP-αMSH)	A5: inhibition of radioligand binding, human melanocortin (MC5) ([5]; [125I]-NDP-αMSH)	A6: inhibition of radioligand binding, human melanin-concentrating hormone (MCH1) ([6]; [125I]-S36057)	A7: inhibition of radioligand binding, human μ-opioid (MOP) ([7]; [3H]-Naloxone)	A8: inhibition of radioligand binding, human neurokinin (NK1) ([8]; [125I]-Substance P)	A9: inhibition of radioligand binding, human neuropeptide Y (NPY-Y1) ([9]; [125I]-PYY)	also measured
COC[C@H]1OC(OCc2ccc(-c3ccccc3)cc2)[C@H](NC(=O)CNC(=N)N)[C@@H](OCc2ccc(Cl)cc2)[C@@H]1O (stereo partly shown) [compound 10]	− (“−” indicates less than 50% inhibition at 10 μM)	− (“−” indicates less than 50% inhibition at 10 μM)	− (“−” indicates less than 50% inhibition at 10 μM)	− (“−” indicates less than 50% inhibition at 10 μM)	+ (“+” indicates greater than 50% inhibition at 10 μM)	+ (“+” indicates greater than 50% inhibition at 10 μM)	− (“−” indicates less than 50% inhibition at 10 μM)	+ (“+” indicates greater than 50% inhibition at 10 μM)	− (“−” indicates less than 50% inhibition at 10 μM)	− (“−” indicates less than 50% inhibition at 10 μM)	− (“−” indicates less than 50% inhibition at 10 μM)										
CO[C@H]1[C@H](O)[C@@H](COCc2ccc3ccccc3c2)OC(OCc2ccc3ccccc3c2)[C@@H]1NC(=O)CCCN (stereo partly shown) [compound 72]	− (“−” indicates less than 50% inhibition at 10 μM)	− (“−” indicates less than 50% inhibition at 10 μM)	− (“−” indicates less than 50% inhibition at 10 μM)	+ (“+” indicates greater than 50% inhibition at 10 μM)	+ (“+” indicates greater than 50% inhibition at 10 μM)	− (“−” indicates less than 50% inhibition at 10 μM)	− (“−” indicates less than 50% inhibition at 10 μM)	+ (“+” indicates greater than 50% inhibition at 10 μM)	− (“−” indicates less than 50% inhibition at 10 μM)	− (“−” indicates less than 50% inhibition at 10 μM)	− (“−” indicates less than 50% inhibition at 10 μM)										
CSC1O[C@H](COCc2ccc(-c3ccccc3)cc2)[C@@H](O)[C@@H](OCc2ccc(-c3ccccc3)cc2)[C@H]1NC(=O)CCNC(=N)N (stereo partly shown) [compound 293]												− (“−” indicates less than 50% inhibition at 10 μM)	− (“−” indicates less than 50% inhibition at 10 μM)	− (“−” indicates less than 50% inhibition at 10 μM)	− (“−” indicates less than 50% inhibition at 10 μM)	− (“−” indicates less than 50% inhibition at 10 μM)	− (“−” indicates less than 50% inhibition at 10 μM)	− (“−” indicates less than 50% inhibition at 10 μM)	+ (“+” indicates greater than 50% inhibition at 10 μM)	− (“−” indicates less than 50% inhibition at 10 μM)	A10: inhibition of radioligand binding, human opioid (ORL1) ([10]; [125I]-Nociceptin): − (“−” indicates less than 50% inhibition at 10 μM); A11: inhibition of radioligand binding, mouse urotensin (mUR2) ([11]; [125I]-Urotensin II): − (“−” indicates less than 50% inhibition at 10 μM)
CO[C@H]1[C@H](O)[C@@H](COCc2cccc(O)c2)OC(OCCc2ccccc2)[C@@H]1NC(=O)CCCNC(=N)N (stereo partly shown) [compound 161]																					A1 radioligand binding, percentage inhibition ([1]; [3H]-Bremazocine): − (“−” indicates less than 50% inhibition at 10 μM); A2 radioligand binding, percentage inhibition ([2]; [3H]-Diprenorphine): − (“−” indicates less than 50% inhibition at 10 μM); A3 radioligand binding, percentage inhibition ([3]; [125I]-NDP-αMSH): − (“−” indicates less than 50% inhibition at 10 μM); A4 radioligand binding, percentage inhibition ([4]; [125I]-NDP-αMSH): − (“−” indicates less than 50% inhibition at 10 μM); A5 radioligand binding, percentage inhibition ([5]; [125I]-NDP-αMSH): − (“−” indicates less than 50% inhibition at 10 μM); A6 radioligand binding, percentage inhibition ([6]; [125I]-S36057): − (“−” indicates less than 50% inhibition at 10 μM); A7 radioligand binding, percentage inhibition ([7]; [3H]-Naloxone): − (“−” indicates less than 50% inhibition at 10 μM); A8 radioligand binding, percentage inhibition ([8]; [125I]-Substance P): + (“+” indicates greater than 50% inhibition at 10 μM); A9 radioligand binding, percentage inhibition ([9]; [125I]-PYY): − (“−” indicates less than 50% inhibition at 10 μM); A10 radioligand binding, percentage inhibition ([10]; [125I]-Nociceptin): − (“−” indicates less than 50% inhibition at 10 μM); A11 radioligand binding, percentage inhibition ([11]; [125I]-Urotensin II): − (“−” indicates less than 50% inhibition at 10 μM)
CSC1OC(COCc2cccc(N)c2)C(O)C(OCc2ccc(Cl)cc2)C1NC(=O)c1ccccc1 (stereo not shown) [compound 332]												− (“−” indicates less than 50% inhibition at 10 μM)	− (“−” indicates less than 50% inhibition at 10 μM)	− (“−” indicates less than 50% inhibition at 10 μM)	− (“−” indicates less than 50% inhibition at 10 μM)	− (“−” indicates less than 50% inhibition at 10 μM)	− (“−” indicates less than 50% inhibition at 10 μM)	− (“−” indicates less than 50% inhibition at 10 μM)	+ (“+” indicates greater than 50% inhibition at 10 μM)	− (“−” indicates less than 50% inhibition at 10 μM)	A10: inhibition of radioligand binding, human opioid (ORL1) ([10]; [125I]-Nociceptin): − (“−” indicates less than 50% inhibition at 10 μM); A11: inhibition of radioligand binding, mouse urotensin (mUR2) ([11]; [125I]-Urotensin II): − (“−” indicates less than 50% inhibition at 10 μM)
